# Test results: article PMC9090415, “Discovery of small molecule inhibitors of Plasmodium falciparum apicoplast DNA polymerase” (Journal of Enzyme Inhibition and Medicinal Chemistry, 2022)
# Target: P. falciparum apicoplast DNA polymerase (Pf-apPOL) (Plasmodium falciparum, UniProt Q8ILY1)
# Assay: Fluorescence-based high-throughput DNA polymerase assay (molecular beacon), primary screen and dose-response
# Type: biochemical
# Conditions: for DNA Pol: 90 min, 10 µM; for % inhibition apPOL 180' 2.5 / % inhibition apPOL 180' 5 / % inhibition apPOL 180' 10 / % inhibition apPOL 180' 20 / % inhibition apPOL 180' 40 / % inhibition apPOL 180' 80: read at 180'
# Procedure, shortened: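 Single-point screening used 10 µM compound with 20 nM polymerase, 20 nM hairpin substrate and 6 µM dNTPs for 90 min at 25 °C. Confirmatory titrations (2.5–80 µM) followed fluorescence at three times, and IC50 was derived from a fit including a cooperativity term n.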
# Chain of P. falciparum apicoplast DNA polymerase (Pf-apPOL) (Q8ILY1 entry or part of it): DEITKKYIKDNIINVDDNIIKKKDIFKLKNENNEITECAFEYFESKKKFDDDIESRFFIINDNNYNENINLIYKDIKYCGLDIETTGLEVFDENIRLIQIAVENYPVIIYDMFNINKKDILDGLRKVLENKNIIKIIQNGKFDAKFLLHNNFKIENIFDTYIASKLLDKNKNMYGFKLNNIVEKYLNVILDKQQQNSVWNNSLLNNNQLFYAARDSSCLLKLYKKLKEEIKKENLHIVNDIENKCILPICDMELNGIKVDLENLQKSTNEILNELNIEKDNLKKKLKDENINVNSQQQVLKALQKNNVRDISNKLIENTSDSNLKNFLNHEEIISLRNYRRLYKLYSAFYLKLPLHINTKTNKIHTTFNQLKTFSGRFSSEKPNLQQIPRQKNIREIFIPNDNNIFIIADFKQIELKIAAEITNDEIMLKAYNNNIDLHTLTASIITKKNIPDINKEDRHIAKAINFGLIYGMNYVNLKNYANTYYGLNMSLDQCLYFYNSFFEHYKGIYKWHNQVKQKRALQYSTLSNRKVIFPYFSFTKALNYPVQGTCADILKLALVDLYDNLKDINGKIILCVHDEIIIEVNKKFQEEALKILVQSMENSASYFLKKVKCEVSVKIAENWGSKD
structure (smiles),measurement,setting,value
"O=C(Cc1cc(=O)[nH]c(SCc2ccccc2)n1)Nc1ccc2c(c1)OCO2 [Molecule 46, O=C(Cc1cc(=O)[nH]c(n1)SCc1ccccc1)Nc1ccc2c(c1)OCO2]",DNA Pol,"""DNA Pol"" of the 186 hits list (screen value)",35
same,% inhibition Apo pol 10',"DRC-1, concentration 2.5",-0.9773%
same,% inhibition Apo pol 10',"DRC-1, concentration 5",2.643%
same,% inhibition Apo pol 10',"DRC-1, concentration 10",32.2663%
same,% inhibition Apo pol 10',"DRC-1, concentration 20",58.1636%
same,% inhibition Apo pol 10',"DRC-1, concentration 40",83.7049%
same,% inhibition Apo pol 10',"DRC-1, concentration 80",86.7652%
same,% inhibition Apol 90',"DRC-1, concentration 2.5",-4.834%
same,% inhibition Apol 90',"DRC-1, concentration 5",-3.621%
same,% inhibition Apol 90',"DRC-1, concentration 10",17.8668%
same,% inhibition Apol 90',"DRC-1, concentration 20",43.05%
same,% inhibition Apol 90',"DRC-1, concentration 40",73.6983%
same,% inhibition Apol 90',"DRC-1, concentration 80",82.3218%
same,% inhibition apPOL 180',"DRC-1, concentration 2.5",-11.1217%
same,% inhibition apPOL 180',"DRC-1, concentration 5",-9.027%
same,% inhibition apPOL 180',"DRC-1, concentration 10",5.286%
same,% inhibition apPOL 180',"DRC-1, concentration 20",25.3173%
same,% inhibition apPOL 180',"DRC-1, concentration 40",61.8193%
same,% inhibition apPOL 180',"DRC-1, concentration 80",77.2818%
same,% inhibition Apo pol 5',"DRC-2, concentration 2.5",-0.743%
same,% inhibition Apo pol 5',"DRC-2, concentration 5",-0.197%
same,% inhibition Apo pol 5',"DRC-2, concentration 10",23%
same,% inhibition Apo pol 5',"DRC-2, concentration 20",29%
same,% inhibition Apo pol 5',"DRC-2, concentration 40",27%
same,% inhibition Apo pol 5',"DRC-2, concentration 80",20%
same,% inhibition Apol 40',"DRC-2, concentration 2.5",-1%
same,% inhibition Apol 40',"DRC-2, concentration 5",0.92%
same,% inhibition Apol 40',"DRC-2, concentration 10",30%
same,% inhibition Apol 40',"DRC-2, concentration 20",47%
same,% inhibition Apol 40',"DRC-2, concentration 40",55%
same,% inhibition Apol 40',"DRC-2, concentration 80",53%
same,% inhibition ApPOL 90',"DRC-2, concentration 2.5",-1%
same,% inhibition ApPOL 90',"DRC-2, concentration 5",-0.186%
same,% inhibition ApPOL 90',"DRC-2, concentration 10",27%
same,% inhibition ApPOL 90',"DRC-2, concentration 20",49%
same,% inhibition ApPOL 90',"DRC-2, concentration 40",60%
same,% inhibition ApPOL 90',"DRC-2, concentration 80",61%
same,% inhibition apPOL 180',"DRC-2, concentration 2.5",-5.33%
same,% inhibition apPOL 180',"DRC-2, concentration 5",-9%
same,% inhibition apPOL 180',"DRC-2, concentration 10",17%
same,% inhibition apPOL 180',"DRC-2, concentration 20",41%
same,% inhibition apPOL 180',"DRC-2, concentration 40",62%
same,% inhibition apPOL 180',"DRC-2, concentration 80",67%
same,DNA Pol,"primary screen value, DNA Pol",35
"O=C(c1ccccc1)N1CCc2c(nc3cc(-c4ccccc4)[nH]n3c2=O)C1 [Molecule 30, O=C(N1CCc2c(C1)nc1n(c2=O)[nH]c(c1)c1ccccc1)c1ccccc1]",DNA Pol,"186 hits, DNA Pol (screen value), unit not given",51
same,DNA Pol,"'DNA Pol' (screen value), unit not given",51
same,% inhibition Apo pol 10' 2.5,"DRC-1, read at 10', concentration 2.5",12.9086%
same,% inhibition Apo pol 10' 5,"DRC-1, read at 10', concentration 5",15.849%
same,% inhibition Apo pol 10' 10,"DRC-1, read at 10', concentration 10",54.0092%
same,% inhibition Apo pol 10' 20,"DRC-1, read at 10', concentration 20",76.4447%
same,% inhibition Apo pol 10' 40,"DRC-1, read at 10', concentration 40",86.2157%
same,% inhibition Apo pol 10' 80,"DRC-1, read at 10', concentration 80",78.4105%
same,% inhibition Apol 90' 2.5,"DRC-1, read at 90', concentration 2.5",4.897%
same,% inhibition Apol 90' 5,"DRC-1, read at 90', concentration 5",3.579%
same,% inhibition Apol 90' 10,"DRC-1, read at 90', concentration 10",37.2459%
same,% inhibition Apol 90' 20,"DRC-1, read at 90', concentration 20",61.0288%
same,% inhibition Apol 90' 40,"DRC-1, read at 90', concentration 40",75.6472%
same,% inhibition Apol 90' 80,"DRC-1, read at 90', concentration 80",72.6232%
same,% inhibition apPOL 180' 2.5,"DRC-1, concentration 2.5",0.553%
same,% inhibition apPOL 180' 5,"DRC-1, concentration 5",-2.049%
same,% inhibition apPOL 180' 10,"DRC-1, concentration 10",22.4217%
same,% inhibition apPOL 180' 20,"DRC-1, concentration 20",42.2339%
same,% inhibition apPOL 180' 40,"DRC-1, concentration 40",59.6497%
same,% inhibition apPOL 180' 80,"DRC-1, concentration 80",57.0627%
same,% inhibition Apo pol 5',"DRC-2, concentration 5",18%
same,% inhibition Apo pol 5',"DRC-2, concentration 10",37%
same,% inhibition Apo pol 5',"DRC-2, concentration 20",50%
same,% inhibition Apo pol 5',"DRC-2, concentration 80",37%
same,% inhibition Apol 40',"DRC-2, concentration 20",61%
same,% inhibition ApPOL 90',"DRC-2, concentration 5",18%
same,% inhibition ApPOL 90',"DRC-2, concentration 20",60%
same,% inhibition ApPOL 90',"DRC-2, concentration 40",61%
same,% inhibition ApPOL 90',"DRC-2, concentration 80",60%
same,% inhibition apPOL 180',"DRC-2, concentration 20",50%
same,% inhibition Apo pol 5' 2.5,"DRC-2, read at 5', concentration 2.5",6.51%
same,% inhibition Apo pol 5' 5,"DRC-2, read at 5', concentration 5",18%
same,% inhibition Apo pol 5' 10,"DRC-2, read at 5', concentration 10",37%
same,% inhibition Apo pol 5' 20,"DRC-2, read at 5', concentration 20",50%
same,% inhibition Apo pol 5' 40,"DRC-2, read at 5', concentration 40",48%
same,% inhibition Apo pol 5' 80,"DRC-2, read at 5', concentration 80",37%
same,% inhibition Apol 40' 2.5,"DRC-2, read at 40', concentration 2.5",6.57%
same,% inhibition Apol 40' 5,"DRC-2, read at 40', concentration 5",20%
same,% inhibition Apol 40' 10,"DRC-2, read at 40', concentration 10",41%
same,% inhibition Apol 40' 20,"DRC-2, read at 40', concentration 20",61%
same,% inhibition Apol 40' 40,"DRC-2, read at 40', concentration 40",62%
same,% inhibition Apol 40' 80,"DRC-2, read at 40', concentration 80",57%
same,% inhibition ApPOL 90' 2.5,"DRC-2, read at 90', concentration 2.5",5%
same,% inhibition ApPOL 90' 5,"DRC-2, read at 90', concentration 5",18%
same,% inhibition ApPOL 90' 10,"DRC-2, read at 90', concentration 10",39%
same,% inhibition ApPOL 90' 20,"DRC-2, read at 90', concentration 20",60%
same,% inhibition ApPOL 90' 40,"DRC-2, read at 90', concentration 40",61%
same,% inhibition ApPOL 90' 80,"DRC-2, read at 90', concentration 80",60%
same,% inhibition apPOL 180' 2.5,"DRC-2, concentration 2.5",0.84%
same,% inhibition apPOL 180' 5,"DRC-2, concentration 5",10%
same,% inhibition apPOL 180' 10,"DRC-2, concentration 10",29%
same,% inhibition apPOL 180' 20,"DRC-2, concentration 20",50%
same,% inhibition apPOL 180' 40,"DRC-2, concentration 40",52%
same,% inhibition apPOL 180' 80,"DRC-2, concentration 80",54%
